Assay results from paper PMC3596309 (2013).

Experiments:
[1] = system: Tel26 (DNA, G4) AAAGGGTTAGGGTTAGGGTTAGGGAA; assay: ITC; conditions: 20 mM KCl; 10 mM Tris, pH 7.5, 25°C; site 1 of 2; two sequential sites
[2] = system: scT22 (DNA, single strand) GGATGTGAGTGTGAGTGTGAGG; assay: CD titration; conditions: 20 mM KCl; 10 mM Tris, pH 7.5, 25°C; 4 µM DNA; two bases per metal complex; per base
[3] = system: wtTel26 (DNA, G4) TTAGGGTTAGGGTTAGGGTTAGGGTT; assay: ITC; conditions: 20 mM KCl; 10 mM Tris, pH 7.5, 25°C; one set of equivalent sites
[4] = system: wtTel26 (DNA, G4) TTAGGGTTAGGGTTAGGGTTAGGGTT; assay: CD melting at 290 nm; conditions: 20 mM KCl; 10 mM Tris, pH 7.5; 4 µM DNA, complex at 2:1 molar ratio
[5] = system: Tel22 (DNA, G4) AGGGTTAGGGTTAGGGTTAGGG; assay: CD melting at 290 nm; conditions: 20 mM KCl; 10 mM Tris, pH 7.5; 4 µM DNA, complex at 2:1 molar ratio
[6] = system: Tel22 (DNA, G4) AGGGTTAGGGTTAGGGTTAGGG; assay: ITC; conditions: 20 mM KCl; 10 mM Tris, pH 7.5, 37°C; one set of equivalent sites
[7] = system: Tel26 (DNA, G4) AAAGGGTTAGGGTTAGGGTTAGGGAA; assay: CD melting at 290 nm; conditions: 20 mM KCl; 10 mM Tris, pH 7.5; 4 µM DNA, complex at 2:1 molar ratio

CN(C)CCNCc1ccnc2c1ccc1cccnc12.CN(C)CCNCc1ccnc2c1ccc1cccnc12.[Ni+2]
Ka [1]: 8.7 ± 3.3 × 10^5 M^-1
Ka [2]: 270000 M⁻¹
Ka [3]: 4.7 ± 1.7 × 10^5 M^-1
ΔTm [4]: 15.2 °C
ΔTm [5]: 10.4 °C
Ka [6]: 35.1 ± 0.6 × 10^5 M^-1
ΔTm [7]: 13.8 °C
